For 24 compounds, Activity results are on record in ChEMBL document CHEMBL1121791, “Computer-assisted structure-activity studies of chemical carcinogens. Aromatic amines” (J Med Chem, 1981).

Holding throughout (format): functional, organism-based
For test [1], the system named is Rattus norvegicus. Description: Carcinogenic activity on all sites after oral administration.
Test [2] concerns Rattus norvegicus. Description: Tested for carcinogenic activity on breast after oral administration of the compound; - denotes non carcinogenic activity.
In test [3] the test system is Rattus norvegicus. The test is described as follows: Carcinogenic activity after oral administration.
For test [4], the system named is Rattus norvegicus. The test is described as follows: Carcinogenic activity on mixed data after oral administration.
Test [5] concerns Rattus norvegicus. The test is described as follows: Carcinogenic activity on liver after oral administration of the compound.
Test [6] has as its system Rattus norvegicus. Description: Carcinogenic activity on ear duct after oral administration of the compound; - denotes non carcinogenic activity.
Test [7] concerns Rattus norvegicus. The test is described as follows: Compound was tested for carcinogenic activity on other sites after various routes administration of the compound; + denotes carcinogenic activity.
Test [8] concerns Rattus norvegicus. The test is described as follows: Compound was tested for carcinogenic activity on all sites after various routes administration of the compound; + denotes carcinogenic activity.
Test [9] relates to Rattus norvegicus. Description: Compound was tested for carcinogenic activity on breast after various routes administration of the compound; + denotes carcinogenic activity.
Test [10] deals with Rattus norvegicus. The test is described as follows: Compound was tested for carcinogenic activity on liver after various routes administration of the compound; + denotes carcinogenic activity.
The subject of test [11] is Rattus norvegicus. The test is described as follows: Compound was tested for carcinogenic activity on ear duct after various routes administration of the compound; + denotes carcinogenic activity.
Test [12] has as its system Rattus norvegicus. The test is described as follows: Compound was tested for carcinogenic activity on mixed data after various routes administration of the compound; + denotes four or five active sites.
For test [13], the system named is Rattus norvegicus. The test is described as follows: Carcinogenic activity on all sites after subcutaneous administration.
Test [14] deals with Rattus norvegicus. Description: Carcinogenic activity on breast after subcutaneous administration.
Test [15] relates to Rattus norvegicus. Description: Carcinogenic activity on other sites after subcutaneous administration.
The subject of test [16] is Rattus norvegicus. Description: Compound was tested for carcinogenic activity on mixed data after subcutaneous administration of the compound; + denotes carcinogenic activity.
The test system of test [17] is Rattus norvegicus. Description: Carcinogenic activity on ear duct after subcutaneous administration.
Test [18] relates to Rattus norvegicus. The test is described as follows: Compound was tested for carcinogenic activity on mixed data after various routes administration of the compound; + denotes carcinogenic activity.
Test [19] deals with Rattus norvegicus. The test is described as follows: Carcinogenic activity on liver after oral administration.
Test [20] relates to Rattus norvegicus. Description: Carcinogenic activity on other sites after oral administration.
Test [21] concerns Rattus norvegicus. The test is described as follows: Compound was tested for carcinogenic activity on ear duct after oral administration of the compound; na denotes not available.
For test [22], the system named is Rattus norvegicus. The test is described as follows: Carcinogenic activity on breast after oral administration of the compound.
Test [23] relates to Rattus norvegicus. Description: Compound was tested for carcinogenic activity on mixed data after oral administration of the compound; + denotes four or five active sites.
Test [24] concerns Rattus norvegicus. The test is described as follows: Carcinogenic activity on ear duct after oral administration.
For test [25], the system named is Rattus norvegicus. The test is described as follows: Compound was tested for carcinogenic activity on ear duct after oral administration of the compound; na denotes data not available.
For test [26], the system named is Rattus norvegicus. The test is described as follows: Compound was tested for carcinogenic activity on all sites after topical administration of the compound; + denotes carcinogenic activity.
Test [27] deals with Rattus norvegicus. Description: Compound was tested for carcinogenic activity on breast after topical administration of the compound; + denotes carcinogenic activity.
Test [28] has as its system Rattus norvegicus. The test is described as follows: Compound was tested for carcinogenic activity on other sites after topical administration of the compound; + denotes carcinogenic activity.
In test [29] the test system is Rattus norvegicus. The test is described as follows: Carcinogenic activity on all sites after intraperitoneal administration.
The test system of test [30] is Rattus norvegicus. The test is described as follows: Carcinogenic activity on breast after intraperitoneal administration.
In test [31] the test system is Rattus norvegicus. The test is described as follows: Compound was tested for carcinogenic activity on other sites after intraperitoneal administration of the compound; + denotes carcinogenic activity.
Test [32] has as its system Rattus norvegicus. The test is described as follows: Compound was tested for carcinogenic activity on liver after oral administration of the compound; na denotes data not available.
Test [33] has as its system Rattus norvegicus. The test is described as follows: Compound was tested for carcinogenic activity on liver after subcutaneous administration of the compound; + denotes carcinogenic activity.
Test [34] deals with Rattus norvegicus. The test is described as follows: Compound was tested for carcinogenic activity on all sites after subcutaneous administration of the compound; + denotes carcinogenic activity.
The subject of test [35] is Rattus norvegicus. Description: Carcinogenic activity on liver after subcutaneous administration.
For test [36], the system named is Rattus norvegicus. Description: Compound was tested for carcinogenic activity on all sites after subcutaneous administration of the compound; + denotes carcinogenic activity.
Test [37] relates to Rattus norvegicus. The test is described as follows: Compound was tested for carcinogenic activity on other sites after subcutaneous administration of the compound; + denotes carcinogenic activity.
In test [38] the test system is Rattus norvegicus. The test is described as follows: Compound was tested for carcinogenic activity on ear duct after oral administration of the compound; + denotes carcinogenic activity.
Test [39] relates to Rattus norvegicus. Description: Compound was tested for carcinogenic various routes subcutaneous administration of the compound; + denotes carcinogenic activity.
Test [40] deals with Rattus norvegicus. The test is described as follows: Compound was tested for carcinogenic activity on mixed data after various routes administration of the compound; + denotes carcinogenic activity.

Structures are written as SMILES. Activity calls are given as the source filed them. The rule behind the calls is not given here.

Take `CC(=O)Nc1ccc2[nH]c3ccccc3c2c1`: the result in the test on Rattus norvegicus [1], in the test on Rattus norvegicus [2], in the test on Rattus norvegicus [3], in the test with Rattus norvegicus [4], in the test with Rattus norvegicus [5] and in the test on Rattus norvegicus [6] was inactive.

For `CC(=O)Nc1ccc2c(c1)Cc1ccccc1-2`, the Activity result with Rattus norvegicus [7], with Rattus norvegicus [8], in the test with Rattus norvegicus [9], in the test with Rattus norvegicus [10], with Rattus norvegicus [11] and with Rattus norvegicus [12] was “Carcinogenic activity” each time.

In the case of `ONc1ccc2c(c1)Cc1ccccc1-2`, the Activity entry with Rattus norvegicus [13], in the test with Rattus norvegicus [14], in the test with Rattus norvegicus [15], in the test on Rattus norvegicus [16] and with Rattus norvegicus [17] was “Carcinogenic activity” in each case.

As for `CC(=O)N(O)c1ccc2c(c1)Cc1ccccc1-2`, the Activity result in the test on Rattus norvegicus [7], in the test on Rattus norvegicus [8], in the test on Rattus norvegicus [9], with Rattus norvegicus [10], in the test with Rattus norvegicus [18] and in the test on Rattus norvegicus [11] was “Carcinogenic activity” each time.

Consider `Nc1ccc2ccccc2c1`, for which the result with Rattus norvegicus [1], in the test on Rattus norvegicus [2], with Rattus norvegicus [3], in the test on Rattus norvegicus [4], in the test with Rattus norvegicus [5] and in the test on Rattus norvegicus [6] was inactive.

For the compound `Cc1ccc(C(=O)Nc2ccc(S(=O)(=O)O)c3cc(S(=O)(=O)O)cc(S(=O)(=O)O)c23)cc1NC(=O)c1cccc(NC(=O)Nc2cccc(C(=O)Nc3cc(C(=O)Nc4ccc(S(=O)(=O)O)c5cc(S(=O)(=O)O)cc(S(=O)(=O)O)c45)ccc3C)c2)c1`, the result in the test with Rattus norvegicus [1], in the test with Rattus norvegicus [19] and in the test on Rattus norvegicus [20] was Active. The result with Rattus norvegicus [2] and in the test on Rattus norvegicus [6] was inactive.

With `COc1c(N)ccc2c1Cc1ccccc1-2`, the Activity entry in the test with Rattus norvegicus [1], in the test on Rattus norvegicus [19] and with Rattus norvegicus [20] was “Carcinogenic activity” throughout. The outcome with Rattus norvegicus [21] was inactive.

In the case of `CC(=O)Nc1ccc(-c2ccc(NC(C)=O)cc2C)cc1`, the Activity entry with Rattus norvegicus [1], in the test with Rattus norvegicus [22], with Rattus norvegicus [23], in the test with Rattus norvegicus [24] and in the test with Rattus norvegicus [20] was “Carcinogenic activity” throughout.

Consider `COc1cccc(-c2cccc(OC)c2N)c1N`, for which, in the test with Rattus norvegicus [25], the outcome was inactive.

Take `CC(=O)Nc1ccc2c(c1)C(=O)c1ccccc1-2`: the Activity entry in the test with Rattus norvegicus [1], in the test on Rattus norvegicus [22] and with Rattus norvegicus [19] was “Carcinogenic activity” in each case. Moreover, the outcome in the test on Rattus norvegicus [25] was inactive.

For the compound `CC(=O)Nc1ccc(-c2ccccc2)cc1`, the Activity result in the test on Rattus norvegicus [1], with Rattus norvegicus [22], with Rattus norvegicus [23], with Rattus norvegicus [24] and in the test with Rattus norvegicus [20] was “Carcinogenic activity” in each case.

For `Nc1ccc2cc3ccccc3cc2c1`, the Activity entry with Rattus norvegicus [26], in the test with Rattus norvegicus [27] and with Rattus norvegicus [28] was “Carcinogenic activity” each time.

Regarding `O=S(=O)(c1ccccc1)N(O)c1ccc2c(c1)Cc1ccccc1-2`, the Activity result in the test on Rattus norvegicus [29], in the test with Rattus norvegicus [30] and with Rattus norvegicus [31] was “Carcinogenic activity” throughout.

In the case of `Nc1c2ccccc2cc2ccccc12`, the Activity result with Rattus norvegicus [13], in the test on Rattus norvegicus [14] and with Rattus norvegicus [16] was “Carcinogenic activity” in each case.

As for `Nc1ccc(Cc2ccc(N)cc2)cc1`, the result in the test on Rattus norvegicus [32] was inactive.

As to `Nc1ccc(-c2ccc(F)cc2)cc1`, the Activity entry in the test with Rattus norvegicus [13], in the test with Rattus norvegicus [15] and in the test on Rattus norvegicus [33] was “Carcinogenic activity” throughout.

As for `Cc1cc(-c2ccc(N)c(C)c2)ccc1N`, the Activity result in the test with Rattus norvegicus [13], in the test with Rattus norvegicus [14], in the test with Rattus norvegicus [15], in the test on Rattus norvegicus [16] and in the test on Rattus norvegicus [24] was “Carcinogenic activity” in each case.

Regarding `CCN(CC)c1ccc(/C=C/c2ccccc2)cc1`, the Activity result in the test on Rattus norvegicus [34] and in the test with Rattus norvegicus [17] was “Carcinogenic activity” each time.

Regarding `Nc1ccc(-c2ccc(N)cc2)cc1`, the Activity entry in the test with Rattus norvegicus [13], with Rattus norvegicus [15], in the test with Rattus norvegicus [35], in the test on Rattus norvegicus [16] and with Rattus norvegicus [17] was “Carcinogenic activity” throughout.

Consider `Cc1cccc(-c2ccc(N)cc2C)c1`, for which the Activity entry in the test on Rattus norvegicus [36] and in the test on Rattus norvegicus [37] was “Carcinogenic activity” in each case.

In the case of `CN(C)c1ccc(-c2ccccc2)cc1`, the Activity result in the test with Rattus norvegicus [1], with Rattus norvegicus [22], in the test on Rattus norvegicus [4], in the test on Rattus norvegicus [38] and in the test with Rattus norvegicus [20] was “Carcinogenic activity” in each case.

Take `Nc1ccc2c(c1)Cc1ccccc1-2`: the Activity result with Rattus norvegicus [7], in the test with Rattus norvegicus [39], in the test with Rattus norvegicus [9], in the test on Rattus norvegicus [10], with Rattus norvegicus [40] and in the test on Rattus norvegicus [11] was “Carcinogenic activity” in each case.

Regarding `O=C(c1ccccc1)N(O)c1ccc2c(c1)Cc1ccccc1-2`, the Activity result with Rattus norvegicus [29], in the test on Rattus norvegicus [30] and in the test on Rattus norvegicus [31] was “Carcinogenic activity” throughout.

Regarding `ONc1ccc2ccccc2c1`, the Activity result in the test with Rattus norvegicus [29] and in the test on Rattus norvegicus [31] was “Carcinogenic activity” in each case.
